Source: US6387417B1, “Bactericide against vancomycin resistant enterococcus” (priority 2000, dated 2002)
Read-outs that look alike come from different tables or passages of the source.

How the values were obtained:
[1] = test system: Enterococcus faecalis KIH-C233; assay: MIC of antibiotics for the strain used; type: cell-based; settings: E. faecalis KIH-C233, collected from a patient
[2] = test system: Enterococcus faecium KIH-234; assay: MIC of antibiotics for the strain used; type: cell-based; settings: KIH234, E. faecium KIH-234, collected from a patient
[3] = test system: Enterococcus faecium KIH-237; assay: MIC of antibiotics for the strain used; type: cell-based; settings: KIH237, E. faecium KIH-237, collected from an imported chicken
[4] = test system: Enterococcus gallinarum KIH-241; assay: MIC of antibiotics for the strain used; type: cell-based
[5] = expected maximum; cited from earlier work
[6] = Solubility of hinokitiol in liquid carrier; type: physicochemical
[7] = Enterococcus faecalis, KIHC233, read-out: MIC
[8] = Enterococcus gallinarum, E. gallinarum KIH-241, collected from a chicken grown in Japan, read-out: MIC

| SMILES | MIC [1, 7] | MIC [2] | MIC [3] | MIC [4, 8] | further results |
| --- | --- | --- | --- | --- | --- |
| CC1(C)S[C@@H]2[C@H](NC(=O)[C@H](N)c3ccccc3)C(=O)N2[C@H]1C(=O)O [ABPC, aminobenzylpenicillin] | 1 µg/mL | 16 µg/mL | 4 µg/mL | 4 µg/mL | – |
| CO[C@@]1(NC(=O)CSCC#N)C(=O)N2C(C(=O)O)=C(CSc3nnnn3C)CS[C@@H]21 [CMZ, cefmetazole] | > 32 µg/mL | > 32 µg/mL | > 32 µg/mL | > 32 µg/mL | – |
| CC[C@H]1OC(=O)[C@H](C)[C@@H](O[C@H]2C[C@@](C)(OC)[C@@H](O)[C@H](C)O2)[C@H](C)[C@@H](O[C@@H]2O[C@H](C)C[C@H](N(C)C)[C@H]2O)[C@](C)(O)C[C@@H](C)C(=O)[C@H](C)[C@@H](O)[C@]1(C)O [EM, erythromycin] | > 32 µg/mL | > 32 µg/mL | > 32 µg/mL | > 1 µg/mL | – |
| C[C@@H](O)[C@H]1C(=O)N2C(C(=O)O)=C(SCCN=CN)C[C@H]12 [IPM, imipenem] | – | – | – | – | MIC [1]: 1 µg/mL; MIC ([4]; E. gallinarum KIH-241, collected from a chicken grown in Japan): 1 µg/mL |
| CC1(C)S[C@@H]2[C@H](NC(=O)Cc3ccccc3)C(=O)N2[C@H]1C(=O)O [PCG, benzylpenicillin] | 4 µg/mL | 16 µg/mL | 16 µg/mL | 1 µg/mL | – |
| CN[C@H](CC(C)C)C(=O)N[C@H]1C(=O)N[C@@H](CC(N)=O)C(=O)N[C@H]2C(=O)N[C@H]3C(=O)N[C@H](C(=O)N[C@H](C(=O)O)c4cc(O)cc(O)c4-c4cc3ccc4O)[C@H](O)c3ccc(c(Cl)c3)Oc3cc2cc(c3O[C@@H]2O[C@H](CO)[C@@H](O)[C@H](O)[C@H]2O[C@H]2C[C@](C)(N)[C@H](O)[C@H](C)O2)Oc2ccc(cc2Cl)[C@H]1O [VCM, vancomycin] | 2 µg/mL | 0.5 µg/mL | 500 µg/mL | – | MIC ([4]; Enterococcus gallinarum, GALLINARUM): 8 µg/mL; concentration of vancomycin in blood at maximum [5]: no more than 6 μg/ml |
| CC(C)c1cccc(=O)c(O)c1 [hinokitiol, Hinokitiol] | – | – | – | – | hinokitiol content achievable in the composition ([6]; alcohol as liquid carrier, without aloe extract and the like extract): up to 5 % by mass; hinokitiol concentration obtainable in aqueous solution ([6]; water with surface active agent (glycerin fatty acid ester) and/or botanical emulsifier (quillaia saponin)): up to 10 % by mass; hinokitiol concentration obtainable in aqueous solution ([6]; water, combined with the aloe extract and like extracts): about 1 % by mass |
